Read-outs that look alike come from different tables or passages of the source. One block for each molecule: values may come before it.
Tests used:
[1] = Drug metabolic stability, S9 fraction with NADPH; format: in vitro ADME
[2] = system: caspase-3 activation in MDA-MB-231 cells; assay: Caspase-3 activation; conditions: MDA-MB-231, 24 hours
[3] = Permeability by PAMPA; format: in vitro ADME
[4] = system: MDA-MB-231 breast cancer cell lines; conditions: cited from earlier work
[5] = system: MDA-MB-231 cells; assay: ATPLite cell viability, compound 3 and TRAIL alone or combined; format: cell-based, human; conditions: low concentrations up to 110 ng/mL, 20 hours

half-life [1]: 14.5 min | Permeability (2 %), class [3]: High
Molecule: CN[C@@H](C)C(=O)Nc1ccc(Oc2ccc(OC)cc2)c(C(=O)NCc2csc(-c3cccs3)n2)c1 [Compound 3, (S)-2-(4-methoxyphenoxy)-5-(2-(methylamino)propanamido)-N-((2-(thiophen-2-yl)thiazol-4-yl)methyl)benzamide]
caspase-3 activation [2]: increases caspase-3 activation

Molecule: COc1cc([C@@H]2c3cc4c(cc3[C@@H](O[C@@H]3O[C@@H]5CO[C@@H](C)O[C@H]5[C@H](O)[C@H]3O)[C@H]3COC(=O)[C@H]23)OCO4)cc(OC)c1O [etoposide, reference compound]
DNA fragmentation ([4]; etoposide 5 µM): no obvious DNA fragmentation

B1: TRAIL: tumor necrosis factor-related apoptosis-inducing ligand (Genentech) (protein, UniProt P50591 1-281, looked up)
Tumor necrosis factor ligand …: MAMMEVQGGPSLGQTCVLIVIFTVLLQSLCVAVTYVYFTNELKQMQDKYSKSGIACFLKEDDSYWDPNDEESMNSPCWQVKWQLRQLVRKMILRTSEETISTVQEKQQNISPLVRERGPQRVAAHITGTRGRSNTLSSPNSKNEKALGRKINSWESSRSGHSFLSNLHLRNGELVIHEKGFYYIYSQTYFRFQEEIKENTKNDKQMVQYIYKYTSYPDPILLMKSARNSCWSKDAEYGLYSIYQGGIFELKENDRIFVSVTNEHLIDMDHEASFFGAFLVG
DNA fragmentation ([4]; TRAIL 30 ng/ml): no obvious DNA fragmentation | induction of tumor cell death, TRAIL alone [5]: very little effects

— publication PMC2692895 (Journal of medicinal chemistry, 2008)
